This is an account of results in patent US20230026856A1, “HETEROCYCLIC COMPOUNDS AND METHODS OF USE THEREOF” (SPARCBIO LLC, priority 2020, published 2023).

Some results are limits rather than exact numbers.

The target in one assay is KRAS G12C protein (Homo sapiens, UniProt P01116, G12C). Kind of assay: Nucleotide exchange assay, Method III (TR-FRET, association of KRAS G12C with Raf-RBD, SOS1-mediated exchange). It counts as biochemical. The following applies: overnight (18 hr) incubation with GDP-bound KRAS G12C. The protocol: Method III. Inhibition of SOS1-mediated exchange of GDP for GTP on the KRAS G12C protein was measured in a biochemical assay that monitors association of KRAS G12C protein with the Ras-binding domain of Raf (Raf-RBD), where the association is coupled to exchange of GDP to GTP on the KRAS G12C protein. The assay was performed at WuXi AppTec (Shanghai, China). Compounds were serially diluted in 3-fold dilutions to 11 concentrations and spotted into the wells of an assay plate in a total volume of 150 nL DMSO per well. A 2× enzyme mix was prepared by diluting GDP-bound, His-tagged KRAS G12C to 25 nM in assay buffer. 10 μL/well of 2× enzyme mix was added to all wells, and the plate was sealed and incubated overnight (18 hr) at 23° C. 4×SOS1/GDP and 4×SOS1/GTP were prepared in assay buffer. 5 μL/well of 4×SOS1/GDP mix was added to negative control wells, 5 μL/well of 4×SOS1/GTP mix was added to the remaining wells, and the plate was further incubated at 23° C. for 1 hr. Finally, FLAG-tagged Raf-RBD is added to the reaction mixture along with a pair of FRET donor- and acceptor-conjugated antibodies specific for the FLAG-tagged Raf-RBD and His-tagged KRAS G12C proteins. A 4× Raf-RBD/Tb-anti-FLAG/D2-anti-His mix was prepared in assay buffer, and 5 μL/well of the mix was added to all wells, followed by incubation at room temperature for 2 hr. The TR-FRET signals, which increase with association of KRAS G12C and Raf-RBD, were measured on a Perkin Elmer Envision 2104 plate reader, and data were analyzed by non-linear regression to obtain IC50 values for inhibition by compounds. Table 2 includes results of the assay of Method III. ‘+++’ indicates IC50 values ≤300 nM, ‘++’ indicates IC50 values between 300 nM-3 μM, and ‘+’ indicates IC50 values ≥3 μM.
Chain of KRAS G12C protein (P01116 1-188 isoform P01116-2 G12C): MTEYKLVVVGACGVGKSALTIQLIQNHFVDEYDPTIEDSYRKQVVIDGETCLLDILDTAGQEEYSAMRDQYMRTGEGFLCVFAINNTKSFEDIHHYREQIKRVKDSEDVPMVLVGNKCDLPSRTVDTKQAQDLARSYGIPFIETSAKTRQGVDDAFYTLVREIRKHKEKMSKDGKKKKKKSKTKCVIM
For orientation: TR-FRET usually uses a lanthanide donor and a delayed reading to cut background.

Another assay has as its system NCI-H358 cells. Kind of assay: 3D cell proliferation assay (Cell Titer-Glo 3D). The following applies: Homo sapiens, NCI-H358, 168 h, NCI-H358, 3D (ultra-low attachment); 7 days. The class given is cell-based. The protocol:
NCI-H358 cells (ATCC® CRL-5807™) were plated in a 384-well Black/Clear Round Bottom Ultra-Low Attachment Microplate (Corning) in medium (RPMI-1640+10% FBS) at a density of 1000 cells in 50 μL per well, then incubated overnight at 37° C. and 5% CO2. Cells were treated with test compounds at 9 concentrations within a specified concentration range (e.g., 0.5 nM-10 μM) for generation of dose response curves. Test compounds were prepared by 1:3 serial dilution in DMSO from a specified starting concentration (e.g., 20 μM, 2 μM or 0.2 μM) and then added to wells of the assay plate in a total volume of 150 nL DMSO. The cells were further incubated at 37° C. and 5% CO2 for 7 days. Cell viability was assessed by adding 40 μL of Cell Titer-Glo® 3D reagent (Cat. No.: G9683, Promega) to each well and reading luminescence after mixing and incubation of the samples. The IC50 value of each test compound was calculated with XLFit curve fitting software.
(Cellular ATP, detected with luciferase, serves as a proxy for viable cell number.)

The test system of the next assay is MIA PaCa-2. Kind of assay: Cell proliferation assay panel (Cell Titer-Glo), MIA PaCa-2. It counts as cell-based. As to conditions: Homo sapiens, MIA PaCa-2, 72 h. The protocol: Potency of compounds was determined in cell proliferation assays in a panel of cancer cell lines. Cells were seeded in 384-well plates (Corning, Cat. #3765) at specified densities in 40 μL of culture medium and incubated overnight at 37° C. in a 5% CO2 incubator (culture conditions). With a robotic dispenser, serially diluted test compounds were added in a volume of 20 nL DMSO to wells in the culture plate to achieve the final desired concentrations of test compounds, and the cells were further incubated in culture conditions for 72 hr. The assay was terminated by addition of 25 μL of Cell Titer-Glo reagent (Promega, Madison, Wis.) to each well. Contents were mixed, the plate was incubated for 10 min at room temperature and luminescence was measured. The IC50 value of each test compound was calculated with XLFit curve fitting software. Results are shown in Table 4. ‘+++’ indicates IC50 values ≤300 nM, ‘++’ indicates IC50 values between 300 nM-3 μM, and ‘+’ indicates IC50 values ≥3 μM.

For assay [1], the system named is Phosphorylation of ERK in NCI-H358 cells. Kind of assay: pERK assay, Method II (homogeneous TR-FRET, phospho-ERK Thr202/Tyr204). The class given is cell-based. As to conditions: Homo sapiens, 4 hr compound treatment. The protocol: Method II. Phosphorylation of ERK was assessed by a homogeneous TR-FRET assay (Advanced phospho-ERK (Thr202/Tyr204) cellular kit; Cat. #64AERPEH, Cisbio). In brief, NCI-H358 cells were seeded in a 384-well culture plate at a density of 6000 cells in 40 μL medium/well and grown overnight at 37° C. and 5% CO2. Each test compound was dosed in duplicate in a 10-dose 3-fold titration starting at 10 μM or 2 μM. The culture plate was then incubated for 4 hr in the incubator. At the end of the compound treatment, the medium was removed, 35 μL of lysis buffer was added to each well, and the plate was agitated on a plate shaker for 40 mins at 4° C. An antibody cocktail of phospho-ERK1/2 Eu Cryptate antibody and Phospho-ERK1/2 d2 antibody was prepared by separately diluting the antibodies 20-fold with detection buffer and then mixing them together. 3.4 μL of antibody cocktail was dispensed to each well of an empty 384-well white ProxiPlus assay plate (Perkin Elmer), and the plate briefly centrifuged. 13.6 μL of cell lysate was then added to the antibody-containing wells, and the plate was briefly centrifuged and then incubated 2 hr at room temperature. The plate was read on a fluorescence plate reader (Envision2104, Perkin Elmer), with an excitation wavelength of 337 nm and emission wavelengths of 615 nm and 665 nm. The IC50 value of each test compound was calculated with XLFit curve fitting software. Results are shown in Table 6. ‘+++’ indicates IC50 values ≤300 nM, ‘++’ indicates IC50 values between 300 nM-3 μM, and ‘+’ indicates IC50 values ≥3 μM.

For orientation: IC50 means the concentration that inhibits the measured activity by half. Take `C=CC(=O)N1CCN(c2c(C(=O)NC)c(=O)n(-c3c(C)ccnc3C(C)C)c3nc(-c4c(O)cccc4F)c(F)cc23)[C@@H](C)C1` (single isomer, unassigned) [76 (Isomer A)]: the figures for the IC50 against KRAS G12C protein and in the assay with NCI-H358 cells were 300 to 3000 nM and 100 to 2000 nM, respectively.
For `C=CC(=O)N1CCN(c2c(C(=O)NC)c(=O)n(-c3c(C)ccnc3C(C)C)c3nc(-c4c(O)cccc4F)c(F)cc23)C[C@@H]1CC#N` (single isomer, unassigned) [80 (Isomer A)] the same measures were ≤ 300 nM and 100 to 2000 nM.
For `C=CC(=O)N1CCN(c2c(C(=O)NC)c(=O)n(-c3c(C)ccnc3C(C)C)c3nc(-c4c(O)cccc4F)c(F)cc23)C[C@H]1C` (single isomer, unassigned) [82 (Isomer A)] the same measures were ≤ 300 nM and 100 to 2000 nM.
For `C=CC(=O)N1CCN(c2c(C(=O)NC)c(=O)n(-c3c(C)ccnc3C(C)C)c3nc(-c4c(O)cccc4F)c(F)cc23)CC1` (single isomer, unassigned) [84 (Isomer A), 4-(4-acryloylpiperazin-1-yl)-6-fluoro-7-(2-fluoro-6-hydroxyphenyl)-1-(2-isopropyl-4-methylpyridin-3-yl)-N-methyl-2-oxo-1,2-dihydro-1,8-naphthyridine-3-carboxamide] the same measures were ≤ 300 nM and 100 to 2000 nM.
In the case of `C=CC(=O)N1CCN(c2c(C(=O)NC)c(=O)n(-c3c(C)ccnc3C(C)C)c3nc(-c4c(C)ccc5[nH]ncc45)c(F)cc23)CC1` (single isomer, unassigned) [116 (Isomer A), 4-(4-acryloylpiperazin-1-yl)-6-fluoro-1-(2-isopropyl-4-methylpyridin-3-yl)-N-methyl-7-(5-methyl-1H-indazol-4-yl)-2-oxo-1,2-dihydro-1,8-naphthyridine-3-carboxamide], the IC50 is ≤ 300 nM at KRAS G12C protein and ≥ 3000 nM in the assay on MIA PaCa-2.
For the compound `C=CC(=O)N1CCN(c2c(S(C)(=O)=O)c(=O)n(-c3c(C)ccnc3C(C)C)c3nc(-c4c(C)ccc5[nH]ncc45)c(F)cc23)CC1` (single isomer, unassigned) [124 (Isomer A), 4-(4-acryloylpiperazin-1-yl)-6-fluoro-1-(2-isopropyl-4-methylpyridin-3-yl)-7-(5-methyl-1H-indazol-4-yl)-3-(methylsulfonyl)-1,8-naphthyridin-2(1H)-one], the IC50 at KRAS G12C protein was ≤ 300 nM; in assay [1] it was 300 to 3000 nM; in the assay on MIA PaCa-2, 300 to 3000 nM.
For `C=CC(=O)N1CCN(c2c(S(C)(=O)=O)c(=O)n(-c3c(C)ccnc3C(C)C)c3nc(-c4c(O)cccc4F)c(F)cc23)[C@@H](C)C1` (single isomer, unassigned) [131 (Isomer A)], the results for the IC50 at KRAS G12C protein and in the assay with NCI-H358 cells were 300 to 3000 nM and 100 to 2000 nM, respectively.
For the compound `C=CC(=O)N1CCN(c2c(S(C)(=O)=O)c(=O)n(-c3c(C)ccnc3C(C)C)c3nc(-c4c(O)cccc4F)c(F)cc23)C[C@@H]1CC#N` (single isomer, unassigned) [135 (Isomer B)], the IC50 against KRAS G12C protein was in the range of 300 to 3000 nM; in the assay with NCI-H358 cells, 100 to 2000 nM.
For `C=CC(=O)N1CCN(c2c(S(C)(=O)=O)c(=O)n(-c3c(C)ccnc3C(C)C)c3c(F)c(-c4c(O)cccc4F)c(Cl)cc23)CC1` (single isomer, unassigned) [176 (Isomer D), 4-(4-acryloylpiperazin-1-yl)-6-chloro-8-fluoro-7-(2-fluoro-6-hydroxyphenyl)-1-(2-isopropyl-4-methylpyridin-3-yl)-3-(methylsulfonyl)quinolin-2(1H)-one] the same measures were ≤ 300 nM and ≤ 100 nM.
`C=CC(=O)N1CCN(c2c(S(C)(=O)=O)c(=O)n(-c3c(C)ccnc3C(C)C)c3c(F)c(-c4c(C)ccc5[nH]ncc45)c(Cl)cc23)CC1` (single isomer, unassigned) [187 (Isomer C), 4-(4-acryloylpiperazin-1-yl)-6-chloro-8-fluoro-1-(2-isopropyl-4-methylpyridin-3-yl)-7-(5-methyl-1H-indazol-4-yl)-3-(methylsulfonyl)quinolin-2(1H)-one]: the IC50 is ≤ 300 nM on KRAS G12C protein, ≤ 100 nM in the assay on NCI-H358 cells and 300 to 3000 nM in the assay on MIA PaCa-2.
With `C=CC(=O)N1CCN(c2c(S(C)(=O)=O)c(=O)n(-c3c(C)ccnc3C(C)C)c3nc(-c4cccc5sc(N)nc45)c(F)cc23)C[C@H]1C` (single isomer, unassigned) [249 (Isomer A)], the IC50 is ≤ 300 nM at KRAS G12C protein and 300 to 3000 nM in the assay with MIA PaCa-2.
In the case of `C=CC(=O)N1CCN(c2c(S(C)(=O)=O)c(=O)n(-c3c(C)ccnc3C(C)C)c3nc(-c4cccc5sc(N)nc45)c(F)cc23)CC1` (single isomer, unassigned) [250 (Isomer A), 4-(4-acryloylpiperazin-1-yl)-7-(2-aminobenzo[d]thiazol-4-yl)-6-fluoro-1-(2-isopropyl-4-methylpyridin-3-yl)-3-(methylsulfonyl)-1,8-naphthyridin-2(1H)-one], the values for the IC50 (against KRAS G12C protein; in assay [1]; with MIA PaCa-2) were ≤ 300 nM, ≤ 300 nM and 300 to 3000 nM, respectively.
For the compound `C=CC(=O)N1CCN(c2c(S(C)(=O)=O)c(=O)n(-c3c(C)ccnc3C(C)C)c3c(F)c(-c4cccc5sc(N)nc45)c(Cl)cc23)CC1` (single isomer, unassigned) [252 (Isomer D), 4-(4-acryloylpiperazin-1-yl)-7-(2-aminobenzo[d]thiazol-4-yl)-6-chloro-8-fluoro-1-(2-isopropyl-4-methylpyridin-3-yl)-3-(methylsulfonyl)quinolin-2(1H)-one], the IC50 at KRAS G12C protein is ≤ 300 nM; in the assay on NCI-H358 cells, ≤ 100 nM.
In the case of `C=CC(=O)N1CCN(c2c(C(=O)NC)c(=O)n(-c3c(C)ccnc3C(C)C)c3nc(-c4cccc5sc(N)nc45)c(F)cc23)CC1` (single isomer, unassigned) [254 (Isomer A), 4-(4-acryloylpiperazin-1-yl)-7-(2-aminobenzo[d]thiazol-4-yl)-6-fluoro-1-(2-isopropyl-4-methylpyridin-3-yl)-N-methyl-2-oxo-1,2-dihydro-1,8-naphthyridine-3-carboxamide], the IC50 against KRAS G12C protein was 300 to 3000 nM; with MIA PaCa-2, ≥ 3000 nM.
